{
  "source": "patent EP0040150A1",
  "about": "“Fluoromethylated tyrosine methyl ester” (MERRELL TORAUDE ET COMPAGNIE, priority 1980, dated 1981)",
  "key": {"[1]": {"tested_on": "catecholamines", "assay": "Catecholamine levels in rat brain and heart after dosing (HPLC with electrochemical detection)", "format": "in vivo, rats", "settings": "for selectivity (brain catecholamines versus heart catecholamines and 5-HT): compared with the methyl ester", "method": "The animals are kept on a constant 12 hour day-night cycle, and body weights are measured daily. The animals are sacrificed by decapitation 12 to 24 hours after receiving the last dose of the test compound. Control animals receive the vehicle alone. Rats in single dose tests were fasted for 24 hours before administration of the test compound whilst rats in multiple dose tests were allowed free access to food and water. Immediately after death, the brain and heart (where appropriate) are removed and separately homogenized either by 50 ml phosphate buffer pH 6.8 for AADC determination or in icecold 0.4 M HC104 containing 0.05% (w/v) EDTA and 0.1% (w/v) sodium bisulfite for catecholamine determination. AADC activity is determined by the ^14C02 trapping method of J. Christenson, Archs. Biochem. Biophys. […] Catecholamines are determined by centrifuging the homogenate, adding the supernatant to alumina buffered to pH 8.0-8.4 to absorb the catecholamines, re-extracting the catecholamines from the alumina with 2.1 M HC104 and determining the catecholamines in the extracts using reversed-phase ion-pair HPLC with electrochemical detection."}, "[2]": {"molecular_target": "T1, aromatic amino acid decarboxylase (AADC) (Rattus norvegicus, UniProt P14173)", "T1 construct": "the brain and heart (where appropriate) are removed and separately homogenized; from tissue; host or cells: rat brain and heart homogenates", "T1 sequence (P14173 1-480)": "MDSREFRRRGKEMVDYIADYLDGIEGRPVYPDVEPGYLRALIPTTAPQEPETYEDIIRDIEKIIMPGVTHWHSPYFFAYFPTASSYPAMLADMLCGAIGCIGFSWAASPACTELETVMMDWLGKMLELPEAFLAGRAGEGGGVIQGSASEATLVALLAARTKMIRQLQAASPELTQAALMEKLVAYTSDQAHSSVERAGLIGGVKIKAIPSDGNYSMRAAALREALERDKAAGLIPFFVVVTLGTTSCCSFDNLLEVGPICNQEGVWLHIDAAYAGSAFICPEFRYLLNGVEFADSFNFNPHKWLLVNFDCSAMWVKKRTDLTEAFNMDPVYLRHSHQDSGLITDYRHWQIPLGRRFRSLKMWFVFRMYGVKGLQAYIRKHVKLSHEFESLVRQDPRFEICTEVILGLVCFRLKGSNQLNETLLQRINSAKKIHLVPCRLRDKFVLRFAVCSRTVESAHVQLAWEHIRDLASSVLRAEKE", "assay": "AADC activity in rat organ homogenates after dosing (14CO2 trapping method, DL-[1-14C]-dopa as substrate)", "format": "in vivo, rats", "method": "(§1) The animals are kept on a constant 12 hour day-night cycle, and body weights are measured daily. The animals are sacrificed by decapitation 12 to 24 hours after receiving the last dose of the test compound. Control animals receive the vehicle alone. Rats in single dose tests were fasted for 24 hours before administration of the test compound whilst rats in multiple dose tests were allowed free access to food and water.\nImmediately after death, the brain and heart (where appropriate) are removed and separately homogenized either by 50 ml phosphate buffer pH 6.8 for AADC determination or in icecold 0.4 M HC104 containing 0.05% (w/v) EDTA and 0.1% (w/v) sodium bisulfite for catecholamine determination. AADC activity is determined by the ^14C02 trapping method of J. Christenson, Archs. Biochem. Biophys. 141, 356 (1970) using DL-[1-14C] -dopa as the substrate. Catecholamines are determined by centrifuging the homogenate, adding the supernatant to alumina buffered to pH 8.0-8.4 to absorb the catecholamines, re-extracting the catecholamines from the alumina with 2.1 M HC104 and determining the catecholamines in the extracts using reversed-phase ion-pair HPLC with electrochemical detection."}, "[3]": {"tested_on": "Serotonin (5-HT)", "assay": "Serotonin (5-HT) levels in rat organs after dosing (standard techniques)", "format": "in vivo, rats", "method": "as §1\nIn the brain, doses of 10 mg/kg and 200 mg/kg produced a 10% reduction and a 70-80% reduction of AADC activity, respectively. […] In the heart, no reduction of norepinephrine is noted up to a dose of 200 mg/kg. When tested after multiple administration of 10, 25, or 50 mg/kg given daily for six days in rats sacrificed 24 hours after the sixth dose, the compound produced a 50% decrease in brain norephinephrine at a dose of 10 mg/kg (daily). […] Serotonin (5-HT) levels, as assessed by standard techniques, are not altered in the brain even at the highest dose tested."}, "[4]": {"assay": "Stability of the compound", "format": "physicochemical"}, "[5]": {"assay": "Solubility in water", "format": "physicochemical", "settings": "neutral pH"}, "[6]": {"molecular_target": "T2, AADC (Homo sapiens, UniProt P20711)", "T2 sequence (P20711 1-480)": "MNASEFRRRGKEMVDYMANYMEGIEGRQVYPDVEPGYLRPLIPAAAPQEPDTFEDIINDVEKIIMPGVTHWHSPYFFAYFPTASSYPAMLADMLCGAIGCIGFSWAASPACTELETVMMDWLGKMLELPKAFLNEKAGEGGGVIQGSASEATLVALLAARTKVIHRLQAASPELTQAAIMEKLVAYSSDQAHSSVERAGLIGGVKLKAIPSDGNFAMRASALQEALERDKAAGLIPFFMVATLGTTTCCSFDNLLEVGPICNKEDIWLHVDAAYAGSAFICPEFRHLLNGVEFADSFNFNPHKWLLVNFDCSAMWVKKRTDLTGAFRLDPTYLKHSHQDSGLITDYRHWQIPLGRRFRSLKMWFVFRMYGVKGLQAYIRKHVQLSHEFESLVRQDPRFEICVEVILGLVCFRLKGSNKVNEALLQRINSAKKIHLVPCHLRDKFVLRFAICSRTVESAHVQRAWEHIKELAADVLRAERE", "assay": "AADC inhibition, general statement (method not given)"}, "[7]": {"settings": "heart, up to a dose of 200 mg/kg"}},
  "data": [
    {"smiles": "NC(CF)(Cc1ccc(O)c(O)c1)C(=O)O", "note": "(centres unmarked) [Fluoromethyl dopa, reference compound]", "values": [
      {"measurement": "selectivity (brain catecholamines versus heart catecholamines and 5-HT)", "setting": "[1]", "value": "does not exhibit the selectivity"}
    ]},
    {"smiles": "COC(=O)[C@@H]1[C@H]2C[C@H]3c4[nH]c5ccccc5c4CCN3C[C@@H]2CC[C@@H]1O", "note": "[Yohimbine, reference compound]", "values": [
      {"measurement": "metabolite MOPEG-sulfate", "setting": "[1]; yohimbine alone", "value": "increase"},
      {"measurement": "norepinephrine", "setting": "[1]; yohimbine alone", "value": "decrease"}
    ]},
    {"smiles": "COC(=O)C(N)(CF)Cc1ccc(O)cc1", "note": "(centres unmarked) [methyl 2-amino-2-fluoromethyl-3-(4-hydroxyphenyl)propionate]", "values": [
      {"measurement": "inhibition of AADC activity", "setting": "[2]; animals pretreated with haloperidol, compared with non-haloperidol treated animals", "value": "more pronounced"},
      {"measurement": "extent of inhibition of AADC activity in the brain", "setting": "[2]; brain, co-administration of -methyl tyrosine (inhibitor of tyrosine hydroxylase)", "value": "reduces the extent of inhibition"},
      {"measurement": "AADC activity in the heart", "setting": "[2]; [7]", "value": "not reduced significantly"},
      {"measurement": "inhibition at 10 mg/kg", "setting": "[2]; rat, brain, dose 10 mg/kg, read-out: reduction of AADC activity", "value": 10, "unit": "%"},
      {"measurement": "additional decrease of norepinephrine produced by yohimbine", "setting": "[1]; animals treated for 2 weeks with 10 mg/kg methyl ester, same dose of yohimbine", "value": "no longer produces an additional decrease"},
      {"measurement": "decrease in brain norephinephrine", "setting": "[1]; brain, 10 mg/kg daily for six days, sacrificed 24 hours after the sixth dose", "value": 50, "unit": "%"},
      {"measurement": "Brain dopamine decreased", "setting": "[1]; brain, 50 mg/kg daily for six days", "value": 50, "unit": "%"},
      {"measurement": "Brain norepinephrine decreased", "setting": "[1]; brain, dose 10 mg/kg", "value": "15-20%"},
      {"measurement": "dopamine decreased", "setting": "[1]; brain, dose 50 mg/kg", "value": "decreased significantly"},
      {"measurement": "Brain norepinephrine decreased", "setting": "[1]; brain, dose 200 mg/kg", "value": 50, "unit": "%"},
      {"measurement": "dopamine decreased", "setting": "[1]; brain, dose 200 mg/kg", "value": 75, "unit": "%"},
      {"measurement": "decrease in brain norephinephrine", "setting": "[1]; brain, higher doses (25 or 50 mg/kg daily for six days) compared with 10 mg/kg", "value": "do not give an additional response"},
      {"measurement": "Brain dopamine", "setting": "[1]; brain, lower doses (10, 25 mg/kg daily for six days)", "value": "no significant effect"},
      {"measurement": "endogenous catecholamine levels in the brain", "setting": "[1]; brain, summary statement", "value": "effective in lowering"},
      {"measurement": "decrease of norepinephrine over yohimbine", "setting": "[1]; combined with yohimbine, up to 8 days of methyl ester treatment", "value": "small additional decrease"},
      {"measurement": "Heart norepinephrine", "setting": "[1]; heart, multiple administration (10, 25 or 50 mg/kg daily for six days), any dose", "value": "not significantly changed"},
      {"measurement": "reduction of norepinephrine in the heart", "setting": "[1]; [7]", "value": "no reduction"},
      {"measurement": "endogenous 5-HT levels in the brain and heart", "setting": "[3]; brain and heart, summary statement", "value": "substantially unaltered"},
      {"measurement": "Serotonin (5-HT) levels in the brain", "setting": "[3]; brain, multiple administration, even at the highest dose tested", "value": "not altered"}
    ]},
    {"smiles": "CC(C)(C)OC(=O)C(N)(CF)Cc1ccc(O)cc1", "note": "(centres unmarked) [tert-butyl 2-fluoromethyl-2-amino-3-(4-hydroxyphenyl)-propionate]", "values": [
      {"measurement": "stability", "setting": "[4]", "value": "relatively unstable"}
    ]},
    {"smiles": "NC(CF)(Cc1ccc(O)cc1)C(=O)O", "note": "(stereo not drawn) [α-fluoromethyl tyrosine, 2-fluoromethyl-2-amino-3-(4-hydroxyphenyl)-propionic acid]", "values": [
      {"measurement": "selectivity (brain catecholamines versus heart catecholamines and 5-HT)", "setting": "[1]", "value": "same degree of selectivity is not found"},
      {"measurement": "solubility in water", "setting": "[5]", "value": "insoluble"},
      {"measurement": "AADC inhibition", "setting": "[6]", "value": "weak AADC inhibitor"}
    ]}
  ]
}
